Legend:
fat grafts = assay: Fat graft volume retention by micro-CT in DFO preconditioned irradiated scalp (Example 1); type: in vivo; conditions: DFO preconditioned irradiated mice, mean±SE
Protocol: (§1) Adult 60-day-old male Cr1:NU-Fox1NU immunocompromised mice were used for experiments in this study. Twelve mice were treated with a total of 30 Gy external beam radiation, delivered as six fractionated doses of 5 Gy each over 12 days, followed by 5 weeks of recovery. An additional six non-irradiated mice were used as healthy controls for laser Doppler analysis (LDA) and skin analysis. Irradiated mice were divided into two treatment groups: a DFO experimental group and saline control group. Following recovery, mice underwent injection of either DFO (1 mg in 100 μl saline) or 100 μl of saline alone beneath the dermis every other day for a total of seven treatments.
After irradiation, fat grafting was performed on the irradiated mice. After informed consent was obtained, lipoaspirate was obtained from three healthy donors, with no other medical co-morbidities under an approved IRB protocol #2188.
Lipoaspirate was allowed to settle for 15 minutes for layers to separate by gravity sedimentation, and then oil and blood layers were removed by vacuum aspiration. The remaining fat layer was centrifuged at 1300 ref for 3 minutes at 4° C. Any remaining oil and blood was again removed and the remaining fat was transferred into lee syringes for injection through a 14-gauge needle. Fat grafting was performed beneath the scalp by creating a subcutaneous tunnel with the needle and then injecting […] of lipoaspirate in retrograde fashion while pulling the needle out.
Mice were also imaged using a MicroCAT-11 in vivo X-Ray micro-CT scanner (Imtek, Inc.; Knoxville, Tenn.) two days after fat graft injection for baseline volume measurements. Fat graft volume retention was then analyzed every two weeks over a total of 8 weeks using microcomputed tomography, and images were reconstructed as three-dimensional surfaces through cubic-spline interpolation. All reconstructions were performed by a single investigator to avoid inter-observer variability.

irradiated scalp = assay: Laser Doppler analysis of perfusion of irradiated scalp, DFO injection (Example 1); type: in vivo, mice; conditions: mean±SE
Protocol: as §1
Laser Doppler Analysis (“LDA”) was performed to measure perfusion at the irradiated site using a Perimed PIM 3 laser Doppler perfusion imager (Datavagen, Sweden). The signal generated by the LDA, laser Doppler perfusion index (LDPI), was used for comparative purposes. LDPI is a product of the blood cell velocity and concentration and is represented by a color spectrum, with black/dark blue representing low perfusion and red representing high perfusion. LDA was performed prior to irradiation, following completion of irradiation and recovery, and then twenty-four hours following each treatment with DFO or saline. […]
Five images were taken of each mouse, and the average LDPI of the five images was recorded. […]

Compound: CC(=O)N(O)CCCCCNC(=O)CCC(=O)N(O)CCCCCNC(=O)CCC(=O)N(O)CCCCCN [DFO, deferoxamine]
- fat graft volume retention (fat grafts; two weeks after fat grafting): 89.24%
- fat graft volume retention (fat grafts; week 6 after fat grafting): 73.17%
- fat graft volume retention (fat grafts; week 8 after fat grafting): 71.75%
- laser Doppler perfusion index at the scalp (irradiated scalp; 30 Gy irradiated scalp, 1 mg DFO injected beneath the dermis every other day, after four treatments): 205.08±2.30 LDPI
- laser Doppler perfusion index following fat grafting (irradiated scalp; two weeks following injection of fat grafts, DFO preconditioned mice): 86.33±2.00 LDPI
